ChEMBL document CHEMBL3507680, “University of Dundee, Gates Library screen for HepG2 cell viability”

Assay: Human HepG2 cell viability assay in 384 well format
Assay type: toxicity, cell-based
Set-up: dose 125 nL, time 70.5 hour; cytotoxicity at 70.5 h: concentration not given beside the values
Details: HepG2 cells, read-out: Inhibition

| SMILES | cytotoxicity at 70.5 h [%] |
| --- | --- |
| COCCN1C[C@H]2[C@@H](C1)N(C(=O)CCc1ccccc1)CC[C@H]2OC | -10.6 |
| Cc1ccc(OCCC(=O)N(C)CC(=O)Nc2cc(C)on2)c(C)c1 | -4.37 |
| CNC(=O)c1cc2c(nc1NCC1CC1)CCN(CC1CC1)CC2 | -26.7 |
| CC(C)c1nn(C)c(N2CCOCC2)c1CNC(C)c1ccccn1 (configuration not stated) | -2.55 |
| Cc1cc(C(=O)N2CCCC2)ccc1NS(C)(=O)=O | -7.84 |
| O=C(NCCCn1ccnc1)N1CCCC1c1cccs1 (configuration not stated) | -2.86 |
| O=C(c1ccc(-n2cccn2)nc1)N1CCCC(n2cccn2)C1 (configuration not stated) | -7.62 |
| CSc1ccc(-c2nc(CN3CCC(NC(C)=O)C3)c(C)o2)cc1 (configuration not stated) | -1.58 |
| O=C(NC1CC(=O)N(C2Cc3ccccc3C2)C1)c1cc[n+]([O-])cc1 (configuration not stated) | 9.2 |
| O=C(NCC1CC1)C1CN(C(=O)Cc2cccs2)CC12CCOCC2 (configuration not stated) | 1.89 |
| CSc1c(CC(=O)O)n(C)c2ccccc12 | -0.594 |
| Cc1nn(C)cc1CN(C)C(=O)c1cnccn1 | 1.11 |
| COc1ccc(CNC(=O)CCc2nnc3ccccn3c2=O)cc1 | 20.7 |
| COC(=O)c1occc1Cn1cc(Br)cn1 | -2.08 |
| Cc1nc(CN2CCCC(CCc3c(F)cccc3F)C2)c[nH]1 (configuration not stated) | -2.43 |
| CCc1nc(NC2CCCN(C(=O)c3cccs3)C2)c2cnn(C)c2n1 (configuration not stated) | 7.73 |
| CCc1ncncc1C(=O)N1CCN(Cc2ccsc2)CC1 | 7.59 |
| COCCn1c(-c2cccc(OC)c2)cnc1NC(=O)NC(C)C | -2.89 |
| CN(Cc1cccc(F)c1)C(=O)CN1CCOC(Cn2cccn2)C1 (configuration not stated) | -2.5 |

| SMILES | cytotoxicity at 70.5 h [%] |
| --- | --- |
| c1cc2c(cc1Cn1cc(C3CCOC3)nn1)CCCO2 (configuration not stated) | -13.2 |
| N#Cc1cccnc1NCCNC(=O)NCCSC(F)(F)F | -10.1 |
| CNC(=O)C1CCCCN1C(=O)c1csc(-c2ccccc2)n1 (configuration not stated) | -9.17 |
| O=C(c1ccc2nccn2c1)N1CCC(CCn2cccn2)CC1 | -9.36 |
| CCNc1cc2c(nn1)CCN(C(=O)c1cccc3c1OCO3)C2 | 3.22 |
| O=C(NCc1ccc(Cl)cc1)C1=NOC2(CCNC2)C1 (configuration not stated) | -9.72 |
| CC(C)c1noc(CCC(=O)NC(C)c2ccccn2)n1 (configuration not stated) | -1.62 |
| Fc1ccc(CN2CCO[C@H]3[C@H](OCc4ccncc4)CC[C@@H]32)cc1 | 55.8 |
| CCCc1cnc(C)nc1N1CCC(Cn2cc(CO)nn2)CC1 | -3.5 |
| CC(C)N(C)CCNC(=O)N(C)CC1CCOCC1 | -11.2 |
| CCNc1nc(-c2cccnc2)c(-c2ccnc(NS(C)(=O)=O)n2)s1 | -8.33 |
| COc1cccc(NC(=O)CN(C(C)C)C2CC2)c1 | -2.69 |
| CCC1(C)Cc2ccccc2-c2nc(NCCCO)nc(O)c21 (configuration not stated) | -4.42 |
| Cc1nc(CN2CCCC2c2nc(C(C)C)no2)cs1 (configuration not stated) | -2.96 |
| COc1cccc(CC(=O)N2CC[C@@H](OC)[C@@H]2Cc2cccnc2)c1 | -4.93 |
| COc1c(CNC2CCc3ccccc32)c(C(C)C)nn1C (configuration not stated) | -16.4 |
| Cc1nc(C2(NCC(=O)NC(=O)Nc3ccccc3)CCCCC2)no1 | -0.595 |
| Cc1cccc(CN2CCCC3(CCN(C4CCSCC4)C3)C2=O)c1 (configuration not stated) | 7.94 |
| CCOC(=O)CCC(=O)N1CCC(Oc2ccc(C(F)(F)F)cn2)CC1 | -4.1 |

| SMILES | cytotoxicity at 70.5 h [%] |
| --- | --- |
| CCc1nnc2n1CCN(Cc1ncc(-c3ccc(F)cc3)o1)C2 | -6.74 |
| CC(C)c1noc(CN2CCN(C(=O)c3ccccc3F)CC2)n1 | -18.6 |
| CNc1snc(C)c1C(=O)N1CCCC(n2ccnc2C)C1 (configuration not stated) | -4.48 |
| CCOc1ncccc1CNC(=O)Nc1ccc(OC)c(OC)c1 | -5.39 |
| Cc1c(C(=O)N2CCC(O)(CN(C)C)C2)c2ccccc2n1C (configuration not stated) | 11 |
| CCn1ccnc1CN1CCN(C(C)C(=O)N2CCCC2)CC1 (configuration not stated) | -3.5 |
| Cc1nnc(CN2CCN(Cc3nccn3C)CC2)n1C | -8.45 |
| CN(C)CCNC(=O)Cn1cnc2cc(NC(=O)C3CC3)ccc21 | -10.6 |
| CN(Cc1noc2c1CCCC2)C(=O)Cn1cnc2ccccc2c1=O | -9.78 |
| Cc1nccn1CC(=O)N1CC(Cc2nccc3ccn(C)c23)C1 | -9.67 |
| COc1c(C)cnc(CN2CCOC(Cn3cncn3)C2)c1C (configuration not stated) | -3.24 |
| O=S(=O)(Cc1cccc(F)c1)Nc1cc(Cl)ccn1 | 2.91 |
| Cc1cccc(N2CC[C@H]3[C@H](CO[C@@H]3CN(C)Cc3ccco3)C2)n1 | 2.69 |
| COCCCN1CC2(CCC1=O)CCN(Cc1cc(C(C)C)no1)CC2 | 29.5 |
| COC(=O)c1sc2cccc(F)c2c1CNC(=O)C1CCCO1 (configuration not stated) | 6.87 |
| O=C(c1cccnc1O)N1CCC2(CCCO2)CC1 | -6.62 |
| CCc1cc(N2CCC(n3cc(C(=O)NC4CC4)nn3)CC2)ncn1 | 12.5 |
| CC(C)c1nn(C)c(N(C)C)c1CNCc1ccc2c(c1)OCO2 | 2.49 |
| Cn1ncc(C2CC(=O)NCc3nc4ccccn4c32)c1C1CC1 (configuration not stated) | -11.4 |
